Test results reported in patent publication US7632857B2, “Histamine H3 receptor agents, preparation and therapeutic uses” (Eli Lilly and Company, priority 2004, dated 2009).

Biological target: T1, H3R (Homo sapiens, UniProt Q9Y5N1)
T1 construct: expressed in transfected cells; pcDNA3.1(+) vector, G418 selection)
Assay: [35S] GTP γ [S] binding assay, antagonist activity in the presence of agonist
Type: biochemical
Settings: membranes from H3R8-expressing HEK293 cell line; agonist R(−)alpha methylhistamine
Experimental: Membranes isolated as described in (Preparation of Histamine Receptor Subtype Membranes) were used in a [35S]GTPχS functional assay. Binding of [35S]GTPχS to membranes indicates agonist activity. Compounds of the invention of Formula I or Formula II were tested for their ability to inhibit binding in the presence of agonists. Alternately, the same transfected cell lines were used for a cAMP assay wherein H3R agonists inhibited forskolin-activated synthesis of cAMP. Compounds of Formula I or Formula II were tested for their ability to permit forskolin-stimulated cAMP synthesis in the presence of agonist.
cDNA for the human histamine 3 receptor was cloned and expressed as described in (A. Preparation H1R membranes), above. Transfected cells were selected using G418 (500μ/ml), grown, and tested for histamine binding by the SPA described above. For total binding, cells were assayed in a SPA reaction described above containing 50 mM Tris-HCL (assay buffer), pH 7.6, 1 mg wheat germ agglutinin SPA beads (Amersham Pharmacia Biotech, #RPNQ0001), and 1 nM (3H)-n-alpha-methylhistamine (NEN, NET1027) (total volume per well=200 μl). Thioperimide was added to determine non-specific binding. […]
Antagonist activity of selected compounds was tested for inhibition of [35S] […] Plates were counted in Wallac Trilux 1450 Microbeta scintillation counter for 1 minute. […]

T1 sequence (Q9Y5N1 whole entry): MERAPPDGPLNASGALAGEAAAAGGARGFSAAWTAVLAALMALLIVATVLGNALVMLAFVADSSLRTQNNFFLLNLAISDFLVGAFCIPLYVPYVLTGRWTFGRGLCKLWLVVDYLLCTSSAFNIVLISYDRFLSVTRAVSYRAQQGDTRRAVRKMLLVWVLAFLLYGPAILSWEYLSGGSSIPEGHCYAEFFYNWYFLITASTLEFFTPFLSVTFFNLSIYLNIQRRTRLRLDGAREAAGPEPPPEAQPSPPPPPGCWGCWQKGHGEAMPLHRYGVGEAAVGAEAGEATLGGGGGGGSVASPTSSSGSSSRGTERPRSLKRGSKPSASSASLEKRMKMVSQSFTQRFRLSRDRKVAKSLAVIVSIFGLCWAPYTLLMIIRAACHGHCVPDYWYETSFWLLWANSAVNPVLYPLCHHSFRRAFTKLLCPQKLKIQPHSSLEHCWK

Ki | SMILES
32 nM | O=C(c1ccc(-c2ccc(OCCN3CCCCC3)cc2)cc1)N1CCC[C@H]1CN1CCCC1
4.9 nM | O=C(c1ccc(-c2ccccn2)cc1)N1CCC[C@H]1CN1CCCC1
